How the values were obtained:
[1] = system: trinitrobenzenesulfonic acid (TNBS)-induced rat colitis models; experiment: Effect on trinitrobenzenesulfonic acid (TNBS)-induced rat colitis model; format: in vivo, rat (male Wister); conditions: for Wet weight of large intestine: conagenin 50 mg/kg i.v., salazosulfapyridine 300 mg/kg p.o., daily, untreated 1.571 ± 0.161, saline 1.723 ± 0.167; for Stage of lesion: number of rats that reached a subacute stage: saline group 4 rats; for Depth of invasion of the ulcer (lamina propria mucosae and submucosal tissue): saline group medium; for Percent change in wet weight against untreated group: untreated 100, TNBS and saline 110
Description: Morbid models were prepared by starving male Wister rats (aged 6 weeks; 7 rats per group) for 48 hours, inserting a catheter by 8 cm through the anus of each of the rats under anesthesia with pentobarbital to inject a solution (0.25 ml) with 2,4,6-trinitrobenzenesulfonic acid dissolved in 50% ethanol in a proportion of 80 mg/ml, stopping the anus for about 10 minutes and then allowing it to stand.
Conagenin was intravenously administered to the rats in a dose of 50 mg/kg. Salazosulfapyridine was orally administered as a control agent in a dose of 300 mg/kg. The administration of these test agents was carried out every day from the day before the administration of 2,4,6-trinitrobenzenesulfonic acid to the fourth day after the administration. The rat models were slaughtered at the fifth day after the administration to determine a change in the wet weight of their recta (8 cm) and make a judgment on the basis of the pathological findings thereof.

patients = conditions: double blind test; cited from earlier work
[2] = system: acetic acid-induced rat ulcer models; experiment: Effect on acetic acid-induced rat ulcer model; format: in vivo, rat (male Donryu:CRJ); conditions: 50 mg/kg i.v.
Description: Morbid models were prepared by starving male Donryu:CRJ rats (aged 6 weeks; 9 rats per group) for 24 hours, incising each of their abdomens under etherization to ligate its colon, injecting a 10% aqueous solution (2 ml) of acetic acid into the digestive tract lumen thereof by means of a syringe equipped with a 25 G needle, further injecting air (3 ml) to discharge the acetic acid solution, and then suturing and closing the operated part. Conagenin was intravenously administered to the rats in a dose of 50 mg/kg 24 hours before the preparation of the models and right after the operation. After 24 hours, the rat models were slaughtered to take out their colons and recta. These organs were incised by 10 cm above from the anus to remove their contents. Thereafter, the weight of the organs was measured, and moreover the degree of mucosal disorder was visually observed. The degree of the tissue damage was evaluated using the grades "light", "medium" and "serious".

[3] = Single administration (acute) toxicity test on rats; format: in vivo; conditions: in vivo, rat
Description: (§1) Conagenin (500 mg/kg) was singly administered intravenously, intraperitoneally, subcutaneously or orally to mice and rats to investigate its toxicity.

Rat = experiment: as above; format: in vivo
Description: as §1

[4] = Single administration toxicity test on mice; format: in vivo, mouse; conditions: in vivo; mouse, intravenous
Description: as §1

Mouse = experiment: Single administration toxicity test on mice; format: in vivo
Description: as §1

rats = experiment: 3-month repeated administration toxicity test on rats; format: in vivo, rat (male Wister); conditions: 3 months
Description: Conagenin (100 mg/kg) was intraperitoneally administered repeatedly for 3 months to male Wister rats (aged 6 weeks; 3 rats per group) to evaluate its toxicity using a group dosed with physiological saline as a control. Tests were made for general symptoms, urinalysis, blood test, blood biochemical test, autopsy, organ weight and pathological test.
The judgment of the test items was conducted in accordance with "Guideline of Toxicity Testing Methods".

[5] = pathological findings of colon, 7 rats per group
[6] = 24 h before and right after operation, 9 rats per group
[7] = 100 mg/kg i.p., compared with saline control

O=C(O)c1cc(/N=N/c2ccc(S(=O)(=O)Nc3ccccn3)cc2)ccc1O [salazosulfapyridine]
Wet weight of large intestine [1]: 1.641 ± 0.140 g | Increase in wet weight of the large intestine ([1]; control (saline) 10%): 4% | Depth of invasion on lamina propria mucosae: number of animals, light [1, 5]: 2 | Depth of invasion on lamina propria mucosae: number of animals, medium [1, 5]: 2 | Depth of invasion on lamina propria mucosae: number of animals, no marked change [1, 5]: 3 | Depth of invasion on submucosal tissue: number of animals, light [1, 5]: 2 | Depth of invasion on submucosal tissue: number of animals, no marked change [1, 5]: 5 | Depth of invasion on tunica muscularis: number of animals, no marked change [1, 5]: 7 | Findings of ulceration: number of animals, light [1, 5]: 2 | Findings of ulceration: number of animals, medium [1, 5]: 2 | Findings of ulceration: number of animals, no marked change [1, 5]: 3 | Inflammatory change: number of animals, light [1, 5]: 2 | Inflammatory change: number of animals, medium [1, 5]: 1 | Inflammatory change: number of animals, no marked change [1, 5]: 4 | Stage of lesion: number of rats that reached a subacute stage [1]: 4 rats | Depth of invasion of the ulcer (lamina propria mucosae and submucosal tissue) [1]: medium | Percent change in wet weight against untreated group [1]: 104% | Generalized amelioration rate (patients): 63.5% | Incidence rate of the side effect (patients): 28.1%

Nc1ccc(O)c(C(=O)O)c1 [mesalazine]
Generalized amelioration rate (patients): 68.8% | Incidence rate of the side effect (patients): 11.5%

C[C@@H]([C@@H](C)O)[C@@H](O)C(=O)N[C@@](C)(CO)C(=O)O [Conagenin, (2S)N-[(2R,3S,4R)2,4-dihydroxy-3-methyl-pentanoyl]-2-methylserine]
Number of animals, grade of inflammation Light (1) [2, 6]: 5 | Number of animals, grade of inflammation Medium (2) [2, 6]: 3 | Number of animals, grade of inflammation Serious (3) [2, 6]: 1 | Grade of inflammation, mean ± SD ([2]; control (physiological saline) 2.38 ± 0.67): 1.50 ± 0.73 | Suppressing effect on the inflammatory ulcer compared with the control group ([2]; in words): high suppressing effect | Inflammatory change (in words) [1]: exactly the same good result | Therapeutic effect compared with salazosulfapyridine ([1]; conagenin 50 mg/kg i.v. vs salazosulfapyridine 300 mg/kg p.o.): marked therapeutic effect | Wet weight of large intestine [1]: 1.572 ± 0.099 g | Increase in wet weight of the large intestine (in words) ([1]; control (saline) 10%): No increase was observed | Depth of invasion on lamina propria mucosae: number of animals, light [1, 5]: 2 | Depth of invasion on lamina propria mucosae: number of animals, no marked change [1, 5]: 5 | Depth of invasion on submucosal tissue: number of animals, no marked change [1, 5]: 7 | Depth of invasion on tunica muscularis: number of animals, no marked change [1, 5]: 7 | Findings of ulceration: number of animals, light [1, 5]: 2 | Findings of ulceration: number of animals, no marked change [1, 5]: 5 | Inflammatory change: number of animals, light [1, 5]: 1 | Inflammatory change: number of animals, no marked change [1, 5]: 6 | Stage of lesion: number of rats that reached a subacute stage [1]: 2 rats | Depth of invasion of the ulcer (lamina propria mucosae and submucosal tissue) [1]: light | Percent change in wet weight against untreated group [1]: 100% | LD50 ([3]; ip, intraperitoneal): > 500 mg/kg | LD50 ([3]; sc, subcutaneous): > 500 mg/kg | LD50 ([3]; intravenous): > 500 mg/kg | LD50 ([3]; oral): > 500 mg/kg | LD50 ([3]; acute toxicity, rats, oral, subcutaneous, intraperitoneal and intravenous): ≥ 500 mg/kg | Abnormal finding of general symptoms (Rat; rat, in vivo, 500 mg/kg): no abnormal finding of general symptoms | Death (Rat; rats, single 500 mg/kg): No death was observed | LD50 [4]: > 500 mg/kg | Death (Mouse; mice, single 500 mg/kg): No death was observed | Abnormal finding of general symptoms (Mouse; mouse, in vivo, 500 mg/kg): no abnormal finding of general symptoms | Death (rats; 100 mg/kg i.p.): None | All items tested (general symptoms, urinalysis, blood test, blood biochemical test, autopsy, organ weight, pathological test) (rats; [7]): no significant change was observed | Blood biochemical test (rats; [7]): No marked change | General symptoms (rats; [7]): No marked change | Hematological test (rats; [7]): No marked change | Pathological test (rats; [7]): No marked change | Urinalysis (rats; [7]): No marked change | Development of toxicity (rats; efficacious dose of 100 mg/kg, rats): no development of toxicity was observed

From patent US6160017A, “Preventives and remedies for ulcerous colitis and/or crohn's disease” (Zaidan Hojin Biseibutsu Kagaku Kenkyu Kai, priority 1997, dated 2000)
